Patent US11505521B2 (Biothea Pharma, Inc., priority 2018, dated 2022)
Like-named read-outs stand apart in the source and are kept apart here.

Settings: no humidity
Method: The samples were prepared in a brown glass bottle with the outer packing being an aluminum foil bag, and the samples were stored between layers of dessicant silica gels. The appearance, residual material, purity, TGA, and DSC were analyzed each month.

CNC[C@H](O)c1ccc(O)c(O)c1 [epinephrine malonate]
Appearance (30° C., month 0): Off-white
DSC Offset (30° C., month 0): Offset: 104.25 °C
DSC Onset (30° C., month 0): Onset: 98.8 °C
Purity (30° C., month 0): 99.96%
TGA (30° C., month 0): 0.32%
Appearance (30° C., month 1): Off-white
DSC Offset (30° C., month 1): Offset: 103.99 °C
DSC Onset (30° C., month 1): Onset: 98.80 °C
Purity (30° C., month 1): 99.96%
Residual Material (%) (30° C., month 1): 100.31%
TGA (30° C., month 1): 0.60%
Appearance (30° C., month 2): Off-white
DSC Offset (30° C., month 2): Offset: 104.47 °C
DSC Onset (30° C., month 2): Onset: 99.27 °C
Purity (30° C., month 2): 99.96%
Residual Material (%) (30° C., month 2): 99.42%
TGA (30° C., month 2): 0.19%
Appearance (30° C., month 3): Off-white
DSC Offset (30° C., month 3): Offset: 104.23 °C
DSC Onset (30° C., month 3): Onset: 98.72 °C
Purity (30° C., month 3): 99.96%
Residual Material (%) (30° C., month 3): 99.44%
TGA (30° C., month 3): 0.90%
Appearance (30° C., month 4): Off-white
DSC Offset (30° C., month 4): Offset: 103.62 °C
DSC Onset (30° C., month 4): Onset: 99.12 °C
Purity (30° C., month 4): 99.73%
Residual Material (%) (30° C., month 4): 99.31%
TGA (30° C., month 4): 0.69%
Appearance (30° C., month 5): Off-white
DSC Offset (30° C., month 5): Offset: 103.92 °C
DSC Onset (30° C., month 5): Onset: 98.71 °C
Purity (30° C., month 5): 99.96%
Residual Material (%) (30° C., month 5): 100.22%
TGA (30° C., month 5): 0.51%
Appearance (40° C., month 0): Off-white
DSC Offset (40° C., month 0): Offset: 104.25 °C
DSC Onset (40° C., month 0): Onset: 98.8 °C
Purity (40° C., month 0): 99.96%
TGA (40° C., month 0): 0.32%
Appearance (40° C., month 1): Off-white
DSC Offset (40° C., month 1): Offset: 104.41 °C
DSC Onset (40° C., month 1): Onset: 98.89 °C
Purity (40° C., month 1): 99.97%
Residual Material (%) (40° C., month 1): 99.59%
TGA (40° C., month 1): 0.16%
Appearance (40° C., month 2): Off-white
DSC Offset (40° C., month 2): Offset: 104.05 °C
DSC Onset (40° C., month 2): Onset: 98.78 °C
Purity (40° C., month 2): 99.96%
Residual Material (%) (40° C., month 2): 100.11%
TGA (40° C., month 2): 0.13%
Appearance (40° C., month 3): Off-white
DSC Offset (40° C., month 3): Offset: 103.33 °C
DSC Onset (40° C., month 3): Onset: 98.69 °C
Purity (40° C., month 3): 99.96%
Residual Material (%) (40° C., month 3): 98.97%
TGA (40° C., month 3): 0.51%
Appearance (40° C., month 5): Off-white
DSC Offset (40° C., month 5): Offset: 103.83 °C
DSC Onset (40° C., month 5): Onset: 98.49 °C
Purity (40° C., month 5): 99.96%
Residual Material (%) (40° C., month 5): 99.68%
TGA (40° C., month 5): 0.46%
